Test: Acute toxicity study, single intravenous dose (non-GLP)
Format: in vivo, Sprague-Dawley rats
Settings: for PT / Phosphate / Potassium / Protein (Total) / RBC / Retc. / Sodium / Triglycerides / Urea / WBC / Multifocal red petechiae on all lung lobes (incidence at necropsy) / Smaller right teste (incidence at necropsy) / Testes noted to have a soft consistency (incidence at necropsy) / White streaks though one or both testes (incidence at necropsy) / ALP / ALT / APTT / AST / Albumin / Albumin/Globulin / Bilirubin (Total) / Calcium / Chloride / Cholesterol / Creatinine / Globulin / Glucose / HCT / HGB / MCH / MCHC / MCV / PLT: day 15; for PT / Phosphate / Potassium / Protein (Total) / RBC / Retc. / Sodium / Triglycerides / Urea / WBC / ALP / ALT / APTT / AST / Albumin / Albumin/Globulin / Bilirubin (Total) / Calcium / Chloride / Cholesterol / Creatinine / Globulin / Glucose / HCT / HGB / MCH / MCHC / MCV / PLT: mean ± SD
Procedure: This acute toxicity study included a satellite group for toxicokinetic assessment. The toxicity study was comprised of 12 male and 12 female rats, which were allocated into four groups of three males and three females. The toxicity of the test substance, WEHI-7326 dihydrochloride (referred to as WEHI-7326 from here), was tested at three dose concentrations of 5 mg/kg, 15 mg/kg and 30 mg/kg administered as a single dose via intravenous tail vein injection. The vehicle control, D-(+)-Glucose, was formulated at 5% w/v and administered per the above regime. On Study Day 15, all animals were terminated with blood collected for biochemistry, haematology and coagulation analysis before undergoing gross necropsy by a US board certified veterinary pathologist. The toxicokinetic satellite group comprised of 30 male rats which were allocated into four groups of three males in the vehicle control group and nine males in each of the three treatment groups. All treatment group animals were then allocated into three subgroups (A, B and C) and bled pre-dose, then 2min, 10min, 0.5h, 2h, 6h, 12h and 24h post-dose. All vehicle control group animals weren’t allocated to a specific subgroup but were bled at 10min and 12h post-dose. All TK animals were then terminated after the final blood collection. Dosing was suspended on Study Day 1 for both the Toxicity and Toxicokinetic Study animals following adverse reactions which lead to the early termination of two animals (one male treated with mid-dose WEHI-7326 from the Toxicity Study and one male treated with high-dose WEHI-7326 from the Toxicokinetic Study) approximately 5-10 minutes post-treatment. After consultation with the Sponsor, the following changes were made to the Study Design:
At the revised high dose of 20mg/kg, all male rats had to be terminated prematurely also due to reaching their body weight loss endpoint of >10% loss. […] Significant findings in clinical pathology outcomes were considered incidental and unrelated to test article treatment. The majority of macroscopic findings at necropsy were also considered to be incidental, however the findings of white streaks through the testes of male animals treated with WEHI-7326 may be related to treatment. Body weights were measured once prior to dose administration, then daily for the duration of the study and at termination. Clinical observations were performed on a daily basis.
The study followed test guideline OECD No. 420 (2001) “Acute Oral Toxicity - Fixed Dose Procedure” with the exception that the route of administration was intravenous (i.v.).

[1] = female rats, 20 mg/kg single i.v.
[2] = male rats, 15 mg/kg single i.v.
[3] = male rats, 20 mg/kg single i.v.

COc1ccc(CNc2nc(NCc3ccc(CN)cc3)nc(NN3CC(=O)NC3=O)n2)cc1 [WEHI-7326]
PT [1]: 21.8 ± 0.8 s
Phosphate [1]: 1.85 ± 0.15 mM
Potassium [1]: 4.72 ± 0.20 mM
Protein (Total) [1]: 64.3 ± 1.2 g/L
RBC [1]: 7.27 ± 0.15 10^12/L
Retc. [1]: 4.75 ± 1.82%
Sodium [1]: 139 ± 1 mM
Triglycerides [1]: 0.96 ± 0.50 mM
Urea [1]: 6.37 ± 0.39 mM
WBC [1]: 7.85 ± 1.07 10^9/L
Body weight loss >10% (termination required) (incidence) (male rats, 5 mg/kg single i.v.): 0/3
Discharge from nose on study day 2 (incidence) (male rats, 5 mg/kg single i.v.): 0/3
Hunched posture with half shut eyes on Study Day 3 (incidence) (male rats, 5 mg/kg single i.v.): 0/3
Labored breathing, severely affected gait and lack of response to stimuli post-dose (termination required) (incidence) (male rats, 5 mg/kg single i.v.): 0/3
Mild impairment of gait and lack of response to stimuli postdose, resolved 2 hours post treatment (incidence) (male rats, 5 mg/kg single i.v.): 0/3
No remarkable observations (incidence) (male rats, 5 mg/kg single i.v.): 3/3
Red stained right eye on study day 2 and 3 (incidence) (male rats, 5 mg/kg single i.v.): 0/3
Multifocal red petechiae on all lung lobes (incidence at necropsy) (male rats, 5 mg/kg single i.v.): 0/3
Smaller right teste (incidence at necropsy) (male rats, 5 mg/kg single i.v.): 1/3
Testes noted to have a soft consistency (incidence at necropsy) (male rats, 5 mg/kg single i.v.): 0/3
White streaks though one or both testes (incidence at necropsy) (male rats, 5 mg/kg single i.v.): 3/3
ALP (male rats, 5 mg/kg single i.v.): 528 ± 112 U/L
ALT (male rats, 5 mg/kg single i.v.): 66 ± 17 U/L
APTT (male rats, 5 mg/kg single i.v.): 16.8 ± 1.3 s
AST (male rats, 5 mg/kg single i.v.): 114 ± 16 U/L
Albumin (male rats, 5 mg/kg single i.v.): 36.6 ± 4.1 g/L
Albumin/Globulin (male rats, 5 mg/kg single i.v.): 1.4 ± 0.2 Ratio
Bilirubin (Total) (male rats, 5 mg/kg single i.v.): 0.4 ± 0.1 µM
Calcium (male rats, 5 mg/kg single i.v.): 2.67 ± 0.12 mM
Chloride (male rats, 5 mg/kg single i.v.): 102.9 ± 5.3 mM
Cholesterol (male rats, 5 mg/kg single i.v.): 1.81 ± 0.18 mM
Creatinine (male rats, 5 mg/kg single i.v.): 25 ± 5 µM
Globulin (male rats, 5 mg/kg single i.v.): 25.3 ± 1.6 g/L
Glucose (male rats, 5 mg/kg single i.v.): 7.70 ± 0.82 mM
HCT (male rats, 5 mg/kg single i.v.): 0.52 ± 0.01 L/L
HGB (male rats, 5 mg/kg single i.v.): 151.7 ± 3.1 g/L
MCH (male rats, 5 mg/kg single i.v.): 19.70 ± 0.85 pg
MCHC (male rats, 5 mg/kg single i.v.): 294.0 ± 5.0 g/L
MCV (male rats, 5 mg/kg single i.v.): 67.2 ± 3.5 fL
PLT (male rats, 5 mg/kg single i.v.): 1025.0 ± 167.5 10^9/L
PT (male rats, 5 mg/kg single i.v.): 19.5 ± 0.3 s
Phosphate (male rats, 5 mg/kg single i.v.): 2.07 ± 0.24 mM
Potassium (male rats, 5 mg/kg single i.v.): 5.23 ± 0.33 mM
Protein (Total) (male rats, 5 mg/kg single i.v.): 61.9 ± 5.8 g/L
RBC (male rats, 5 mg/kg single i.v.): 7.71 ± 0.45 10^12/L
Retc. (male rats, 5 mg/kg single i.v.): 4.57 ± 1.00%
Sodium (male rats, 5 mg/kg single i.v.): 143 ± 10 mM
Triglycerides (male rats, 5 mg/kg single i.v.): 1.65 ± 0.18 mM
Urea (male rats, 5 mg/kg single i.v.): 6.11 ± 0.96 mM
WBC (male rats, 5 mg/kg single i.v.): 14.83 ± 1.08 10^9/L
Body weight loss >10% (termination required) (incidence) [2]: 2/4
Discharge from nose on study day 2 (incidence) [2]: 0/4
Hunched posture with half shut eyes on Study Day 3 (incidence) [2]: 0/4
Labored breathing, severely affected gait and lack of response to stimuli post-dose (termination required) (incidence) [2]: 1/4
Mild impairment of gait and lack of response to stimuli postdose, resolved 2 hours post treatment (incidence) [2]: 0/4
No remarkable observations (incidence) [2]: 1/4
Red stained right eye on study day 2 and 3 (incidence) [2]: 1/4
Multifocal red petechiae on all lung lobes (incidence at necropsy) [2]: 0/1
Smaller right teste (incidence at necropsy) [2]: 0/1
Testes noted to have a soft consistency (incidence at necropsy) [2]: 1/1
White streaks though one or both testes (incidence at necropsy) [2]: 1/1
ALP [2]: 306 ± 0 U/L
ALT [2]: 61 ± 0 U/L
APTT [2]: 20.2 ± 0.0 s
AST [2]: 108 ± 0 U/L
Albumin [2]: 32.3 ± 0 g/L
Albumin/Globulin [2]: 1.3 ± 0 Ratio
Bilirubin (Total) [2]: 0.9 ± 0 µM
Calcium [2]: 2.50 ± 0 mM
Chloride [2]: 100.4 ± 0 mM
Cholesterol [2]: 1.65 ± 0 mM
Creatinine [2]: 23 ± 0 µM
Globulin [2]: 25.8 ± 0 g/L
Glucose [2]: 7.13 ± 0 mM
HCT [2]: 0.46 ± 0.00 L/L
HGB [2]: 138.0 ± 0.0 g/L
MCH [2]: 18.00 ± 0.00 pg
MCHC [2]: 297.0 ± 0.0 g/L
MCV [2]: 60.40 ± 0.0 fL
PLT [2]: 1075 ± 0.0 10^9/L
PT [2]: 18.4 ± 0.0 s
Phosphate [2]: 2.07 ± 0 mM
Potassium [2]: 4.78 ± 0 mM
Protein (Total) [2]: 58.1 ± 0 g/L
RBC [2]: 7.68 ± 0.00 10^12/L
Retc. [2]: 2.70 ± 0.00%
Sodium [2]: 138 ± 0 mM
Triglycerides [2]: 0.97 ± 0 mM
Urea [2]: 4.02 ± 0 mM
WBC [2]: 10.89 ± 0.00 10^9/L
Body weight loss >10% (termination required) (incidence) [3]: 3/3
Discharge from nose on study day 2 (incidence) [3]: 3/3
Hunched posture with half shut eyes on Study Day 3 (incidence) [3]: 3/3
Labored breathing, severely affected gait and lack of response to stimuli post-dose (termination required) (incidence) [3]: 0/3
Mild impairment of gait and lack of response to stimuli postdose, resolved 2 hours post treatment (incidence) [3]: 3/3
No remarkable observations (incidence) [3]: 0/3
Red stained right eye on study day 2 and 3 (incidence) [3]: 0/3
Multifocal red petechiae on all lung lobes (incidence at necropsy) [3]: 0/0
Smaller right teste (incidence at necropsy) [3]: 0/0
Testes noted to have a soft consistency (incidence at necropsy) [3]: 0/0
White streaks though one or both testes (incidence at necropsy) [3]: 0/0

— PMC7955127, “Preclinical small molecule WEHI-7326 overcomes drug resistance and elicits response in patient-derived xenograft models of human treatment-refractory tumors” (Cell Death & Disease, 2021)
